From patent US10894794B1, “Substituted [1,2,4]triazolo[4,3-a]pyrazines as antidiabetics” (King Abdulaziz University, priority 2019, dated 2021)
Marks after values point to notes of the source that are not given here.

Legend:
Type in all cases: in vivo
[1] = test system: STZ-diabetic mice; experiment: Fasting blood glucose of diabetic mice during six days of treatment; details: for activity in controlling the rise of blood glucose levels in streptozotocin diabetic animals (in words) / control of fasting blood sugar compared with sitagliptin and the other compounds (in words): 50 mg/kg/day; for activity in controlling the rise of blood glucose levels in streptozotocin diabetic animals (in words): 6-day interval; for control of fasting blood sugar compared with sitagliptin and the other compounds (in words): 6 days; for Blood glucose level, fasting: 50 mg/kg/day oral, diabetic mice, mean ± SEM
Source text: Our objective was to test the efficacy of the synthesized compounds for their potential to reduce blood glucose in STZ-diabetic mice. The synthesized compounds Nos. 128, 129, 130, 131,140, 142 were expected to act through the inhibition of the DPP-IV enzyme, which is responsible for the degradation of the entero-peptide GLP-I. In turn, GLP-I increases insulin and decreases glucagon release from the pancreatic islets (β and α-cells respectively). So this part of the project was designed to study the effect of the synthesized gliptin simulated compounds on blood glucose levels and their efficacy to increase glucose utilization in diabetic mice through: • a. The effect of the tested compounds in a dose of 50 mg/kg/day on fasting blood glucose blood levels of diabetic mice during six days of treatment. • b. Oral glucose tolerance test (OGTT) through oral glucose loading, 2 h after treatment with single oral dose (50 mg/kg) of the tested compounds in 14 h overnight fasted mice. • c. OGTT through oral glucose loading, 2 h after treatment with the 6th oral dose (50 mg/kg) of the tested compounds in 14 h overnight fasted mice. • d. The effect of the pretreatment with the tested compounds at an oral dose of 50 mg/kg on blood glucose levels, 3 h before and 3 h after meal feeding (feeding for one hour only, then food was removed immediately) in 14 h overnight-fasted diabetic mice.
(§1) Blood samples were collected from the tail vein and the blood glucose level was determined. Curves of blood glucose levels (mg/dL) versus the time intervals (min) were constructed and the area under the curves (AUCs) were calculated by the method of calculation embedded in GraphPad Prism® v. 5.0 (GraphPad Software, San Diego, Calif., USA). AUCs of the curves of the different groups were compared and tested for significance against control groups.
All data are presented as means±SEM. Statistical significance was evaluated by analysis of variance (ANOVA) followed by Tukey-Kramer's post hoc test for multiple comparisons. The “t” of the paired data was used to test the significance of the values of the fasting blood glucose compared to the values before treatment. Statistical significance was accepted at a level of p<0.05.

[2] = test system: overnight fasted diabetic mice; experiment: OGTT after multiple doses (6 consecutive days); details: for AUC in OGTT, % change from diabetic control / AUC in OGTT, Δ from diabetic control / Relative potency to sitagliptin (OGTT AUC) / AUC in OGTT, X (arithmetic mean): 50 mg/kg oral for six days; for AUC in OGTT, X (arithmetic mean): 2 h before glucose loading, AUC 0-120 min; for relative potency in OGTT compared with sitagliptin (in words): 6 consecutive days, 50 mg/kg
Procedure: The tested compounds were given daily by oral gavage for 6 consecutive days. On day 6, the overnight fasted diabetic mice were pretreated with the 6th oral dose of the tested compounds. Then an oral glucose was loaded (2 g/kg/10 ml b.w.) 2 h after drug treatment. Blood glucose levels were determined using the Accu-check Go® (Roche Diagnostics, Michigan, USA). Samples were collected just before drug administration (Fasting Blood glucose), then 2 h after drug treatment and before glucose administration. Sample collection was continued at 20, 40, 60 and 120 min intervals after glucose loading.
• b. Group 1: Animals of this group are 14 h overnight-fasted normoglycemic mice received the vehicle (1% CMC-Na) at a dosing volume of 10 ml/kg/day for six consecutive days. • c. Group 2: Overnight-fasted diabetic mice received the vehicle (1% CMC-Na) at a dosing volume of 10 ml/kg/day for six consecutive days and served as a negative control. • d. Group 3: Overnight-fasted diabetic mice received sitagliptin at a dose of 50 mg/kg/day for six consecutive days and served as positive control. • e. Groups 4-17: Animals in these groups were overnight-fasted diabetic mice and received the tested compounds 128, 129, 130, 131, at a dose of 50 mg/kg/day for six consecutive days (volume of 10 ml/kg). Effect on Blood Glucose Level after Introduction of Food for One Hour (≈Meal Tolerance Test) Rational of the Test

[3] = test system: 14 h overnight-fasted diabetic mice; experiment: Blood glucose after introduction of food for one hour (meal tolerance test); details: for antihyperglycemic activity after introduction of food (blood glucose rise and total AUC(0-180), in words): 50 mg/kg, 3 h before introduction of food; for Area under the curve AUC(0-180) after meal feeding: Day 1, 50 mg/kg oral, 3 hr pretreated
Procedure: The rational of this test was to determine the ability of the tested compounds to modulate glucose utilization after the introduction of food, after 3 h of drug administration to 14 h overnight-fasted mice (feeding with normal diet was done for 1 hr only, then food was removed during the remaining time of the test). This model is analogous to oral glucose tolerance tests (OGTT) used clinically to evaluate glycemic control, except that the meal was composed of fats, proteins and carbohydrates, and thus was a more realistic representation of the nutritional makeup of normal food. The main purpose is that during meal digestion, food contents e.g. carbohydrates, proteins and fats, were reported to cause an increase in the production of the GLP-I from the L-cells in ileum and colon. The produced GLP-I goes into circulation directly and affects insulin secretion from pancreatic β-cells. Both the GPL-I and insulin levels are expected to be high especially in the presence of a […] inhibitor.
Animals were Distributed Between 17 Groups (n=6) as Follows: • a. Group 1. Animals of this group were overnight-fasted normoglycemic mice and received the vehicle (1% CMC-Na) at a volume of 10 ml/kg/day for 4 consecutive days. • b. Group 2: overnight-fasted diabetic mice received the vehicle (1% CMC-Na) at a volume of 10 ml/kg/day for 4 consecutive days and served as a negative control. • c. Group 3: overnight fasted diabetic mice received sitagliptin at a dose of 50 mg/kg/day for 4 consecutive days in 1% CMC (in a volume of 10 ml/kg) and served as positive control. • d. Groups 4-19: Animals of these groups were overnight-fasted diabetic mice and received the tested compounds 128, 129, 130, 131,140, 142 at a dose of 50 mg/kg/day for 4 consecutive days in 1% CMC (volume of 10 ml/kg). Food was introduced for one hour only then food was removed immediately. Blood glucose levels were determined just before and 3 h after drug administration and then at 0, 60, 120 and 180 min after meal. Blood Sampling and Blood Glucose Determination
as §1

| SMILES | activity in controlling the rise of blood glucose levels in streptozotocin diabetic animals (in words) [1] | control of fasting blood sugar compared with sitagliptin and the other compounds (in words) [1] | control of fasting blood sugar compared with sitagliptin and the other compounds (in words) ([1]; listed as 130) | AUC in OGTT, % change from diabetic control [2] [%] | AUC in OGTT, Δ from diabetic control [2] [mg·min/dL] | Relative potency to sitagliptin (OGTT AUC) [2] | AUC in OGTT, X (arithmetic mean) [2] | relative potency in OGTT compared with sitagliptin (in words) [2] | antihyperglycemic activity after introduction of food (blood glucose rise and total AUC(0-180), in words) [3] | Area under the curve AUC(0-180) after meal feeding [3] | Blood glucose level, fasting ([1]; Day 1) [mg/dL] | Blood glucose level, fasting ([1]; Day 4) [mg/dL] | Blood glucose level, fasting ([1]; Day 5) [mg/dL] |
| --- | --- | --- | --- | --- | --- | --- | --- | --- | --- | --- | --- | --- | --- |
| C[C@H](NC(=O)c1cccc(Cl)c1)C(=O)N1CCn2c(nnc2C(F)(F)F)C1 [GLP-130] | significant activity | most consistent and extended activities | comparable to that of sitagliptin | −34.11 | -17983 | 0.90 | 34672* mg · dL^−1 · min | comparable or higher relative potency than sitagliptin | significant antihyperglycemic activity | 50478 ± mg · dL^−1 · min | – | – | – |
| N#Cc1cccc(NC(=O)CN2CCn3c(nnc3C(F)(F)F)C2)c1 [GLP-142] | significant activity | comparable to that of sitagliptin | – | −19.4 | -10216 | 0.513 | 42439* mg · dL^−1 · min | – | significant antihyperglycemic activity | – | 230.0 ± 13.769 | 188.8 ± 25.784 | 205.4 ± 39.315 |
| O=C(CN1CCn2c(nnc2C(F)(F)F)C1)NC1CCCCC1 [GLP-140] | significant activity | comparable to that of sitagliptin | – | −38.32 | -20180 | 1.01 | 32475* mg · dL^−1 · min | comparable or higher relative potency than sitagliptin | significant antihyperglycemic activity | 72873 ± mg · dL^−1 · min | 210.0 ± 12.345 | – | – |
